Values quoted from earlier work, collected in PMC8823334 (ACS chemical neuroscience, 2021).

Columns and labels:
PAR4 [1] = target: T1, PAR4 (Homo sapiens, UniProt Q96RI0)
T1 sequence (Q96RI0 18-385): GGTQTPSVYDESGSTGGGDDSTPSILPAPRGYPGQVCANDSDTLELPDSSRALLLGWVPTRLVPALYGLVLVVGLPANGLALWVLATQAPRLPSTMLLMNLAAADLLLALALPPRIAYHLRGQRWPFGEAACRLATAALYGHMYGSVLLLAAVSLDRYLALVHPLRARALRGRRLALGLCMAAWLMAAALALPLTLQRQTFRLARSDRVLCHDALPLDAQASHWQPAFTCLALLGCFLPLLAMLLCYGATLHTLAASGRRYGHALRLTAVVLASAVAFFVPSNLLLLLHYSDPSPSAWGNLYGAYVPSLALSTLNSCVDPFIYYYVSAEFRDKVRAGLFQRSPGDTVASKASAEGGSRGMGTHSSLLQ

PAR4 [2] = conditions: mice, suppression of neuroinflammation in astrocytes

- mode of PAR4 inhibition (PAR4 [1]): noncompetitive mode of inhibition
SMILES: COc1cc(OCc2nc(N3CCOCC3)sc2C)c2cc(-c3cn4nc(OC)sc4n3)oc2c1 [Compound 1]
- protection against traumatic brain injury (PAR4 [2]): protected against traumatic brain injury (TBI) in mice
